Experimental data from patent publication EP0338887B1, “Phosphonoalkylpurine derivatives” (MERRELL DOW PHARMACEUTICALS INC., priority 1988, dated 1989).
Read-outs that look alike come from different tables or passages of the source.

How the values were obtained:
Type in all cases: biochemical
[1] = target: T1, purine nucleoside phosphorylase (PNP) (Homo sapiens, UniProt P00491); assay: PNP inhibition, coupled xanthine oxidase method of Kalckar (human erythrocyte PNP)
T1 construct: Human Erythrocytes; from tissue; host or cells: human erythrocytes
T1 sequence (P00491 1-289): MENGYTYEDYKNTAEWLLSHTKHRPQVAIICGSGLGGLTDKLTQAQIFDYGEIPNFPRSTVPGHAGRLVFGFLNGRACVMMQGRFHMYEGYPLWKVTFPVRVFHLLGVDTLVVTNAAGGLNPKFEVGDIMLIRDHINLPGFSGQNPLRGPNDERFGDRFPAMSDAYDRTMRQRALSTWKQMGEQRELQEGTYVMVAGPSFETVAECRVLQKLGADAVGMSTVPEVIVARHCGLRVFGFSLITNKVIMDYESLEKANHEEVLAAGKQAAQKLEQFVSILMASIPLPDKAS

[2] = target: T2, purine nucleoside phosphorylase (PNP) (Bos taurus, UniProt P55859); assay: PNP inhibition, coupled xanthine oxidase method of Kalckar (calf spleen PNP)
T2 construct: Calf Spleen; from tissue; host or cells: calf spleen
T2 sequence (P55859 1-289): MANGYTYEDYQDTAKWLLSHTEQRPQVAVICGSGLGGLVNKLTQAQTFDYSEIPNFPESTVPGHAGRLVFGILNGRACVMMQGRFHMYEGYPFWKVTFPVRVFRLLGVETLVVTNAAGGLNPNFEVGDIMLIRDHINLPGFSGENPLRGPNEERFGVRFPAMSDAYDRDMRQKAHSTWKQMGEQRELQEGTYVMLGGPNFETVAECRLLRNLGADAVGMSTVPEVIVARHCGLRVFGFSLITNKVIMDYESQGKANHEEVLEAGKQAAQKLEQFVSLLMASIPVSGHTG
Experimental: (§1) Purine nucleoside phophorylase (PNP) inhibitory activity can be determined by the coupled xanthine oxidase method of Kalckar, using inosine as the substrate (H.M.Kalckar, J. Biol. Chem. 167, 429-443 (1947)). […] The Ki for representative members of the compounds of formula 1 are tabulated in table 1 and are compared to the KM values of the substrate inosine using PNP from various sources. […] The presence of 2'-deoxyguanosine (about 10 µM), a natural metabolite, appears to be important in in vitro activity.

[3] = target: T3, purine nucleoside phosphorylase (PNP) (Rattus norvegicus, UniProt P85973); assay: PNP inhibition, coupled xanthine oxidase method of Kalckar (rat erythrocyte PNP)
T3 construct: Rat Erythrocytes; from tissue; host or cells: rat erythrocytes
T3 sequence (P85973 1-289): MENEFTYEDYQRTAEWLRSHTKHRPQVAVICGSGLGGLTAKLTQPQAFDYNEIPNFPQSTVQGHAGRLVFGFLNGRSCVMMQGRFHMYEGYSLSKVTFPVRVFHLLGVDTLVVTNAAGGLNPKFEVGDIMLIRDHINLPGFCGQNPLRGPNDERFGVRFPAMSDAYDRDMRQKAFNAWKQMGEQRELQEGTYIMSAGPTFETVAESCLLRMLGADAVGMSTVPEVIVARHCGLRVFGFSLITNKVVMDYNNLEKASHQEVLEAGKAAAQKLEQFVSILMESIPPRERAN

[4] = substrate: OC[C@H]1O[C@@H](n2cnc3c(O)ncnc32)[C@H](O)[C@@H]1O; assay: as above; settings: other: substrate KM for comparison; pH 7.4
[5] = substrate: OC[C@H]1O[C@@H](n2cnc3c(O)ncnc32)[C@H](O)[C@@H]1O; assay: PNP inhibition, coupled xanthine oxidase method of Kalckar (human erythrocyte PNP); settings: other: substrate KM for comparison; pH 7.4
[6] = substrate: OC[C@H]1O[C@@H](n2cnc3c(O)ncnc32)[C@H](O)[C@@H]1O; assay: PNP inhibition, coupled xanthine oxidase method of Kalckar (calf spleen PNP); settings: other: substrate KM for comparison; pH 7.4
Experimental: as §1

Nc1nc(O)c2ncn(CCCCCCCP(=O)(O)O)c2n1 [9-(7-phosphono-heptyl)guanine]
Ki [1]: 6.8e-07 M | Ki [2]: 1.2e-06 M | Ki ([3]; apparent dissociation constant, 1 mM inorganic phosphate, 0.1 M HEPES buffer (pH 7.4), inosine 0.05 mM to 0.15 mM as substrate, read-out: Ki (M) PNP SOURCE Rat Erythrocytes): 7.5e-08 M

O=c1[nH]cnc2c1ncn2CCCCCCC(F)(F)P(=O)(O)O [9-(7-phosphono-7,7-difluoroheptyl)hypoxanthine]
Ki [1]: 1e-07 M | Ki [2]: 2.2e-06 M | Ki [3]: 1.6e-07 M

Nc1nc2c(ncn2CCCCC(F)(F)P(=O)(O)O)c(=O)[nH]1 [9-(5-phosphono-5,5-difluoropentyl)guanine]
Ki [3]: 3.5e-08 M

Nc1nc2c(ncn2CCCCCCCC(F)(F)P(=O)(O)O)c(=O)[nH]1 [9-(8-phosphono-8,8-difluorooctyl)guanine]
Ki [1]: 1.9e-07 M | Ki [2]: 6.2e-07 M | Ki [3]: 4.6e-09 M

Nc1nc2c(ncn2CCCCCCC(F)(F)P(=O)(O)O)c(=O)[nH]1 [9-(7-phosphono-7,7-difluoroheptyl)guanine]
Ki [1]: 8e-08 M | Ki [2]: 1.5e-07 M | Ki [3]: 9.6e-09 M

Nc1nc2c(ncn2CCCCCC(F)(F)P(=O)(O)O)c(=O)[nH]1 [9-(6-phosphono-6,6-difluorohexyl)guanine]
Ki [1]: 2.8e-07 M | Ki [2]: 3.2e-07 M | Ki [3]: 1.8e-07 M

CCOP(=O)(O)C(F)(F)CCCCCCn1cnc2c(=O)[nH]c(N)nc21 [9-(7-phosphono-7,7-difluoroheptyl)guanine, ethyl ester]
Ki ([1]; apparent dissociation constant, 1 mM inorganic phosphate, 0.1 M HEPES buffer (pH 7.4), inosine 0.05 mM to 0.15 mM as substrate, read-out: Ki (M) PNP SOURCE Human Erythrocytes): 8e-07 M | Ki ([2]; apparent dissociation constant, 1 mM inorganic phosphate, 0.1 M HEPES buffer (pH 7.4), inosine 0.05 mM to 0.15 mM as substrate, read-out: Ki (M) PNP SOURCE Calf Spleen): 3.3e-06 M | Ki [3]: 2.8e-07 M

B1: purine nucleoside phosphorylase (PNP) (Rattus norvegicus) (protein)
chain: T3 sequence (P85973 1-289)
notes: Rat Erythrocytes; from tissue; host or cells: rat erythrocytes
Km [4]: 80 x 10⁻⁶ M

B2: purine nucleoside phosphorylase (PNP) (Homo sapiens) (protein)
chain: T1 sequence (P00491 1-289)
notes: Human Erythrocytes; from tissue; host or cells: human erythrocytes
Km [5]: 70 x 10⁻⁶ M

B3: purine nucleoside phosphorylase (PNP) (Bos taurus) (protein)
chain: T2 sequence (P55859 1-289)
notes: Calf Spleen; from tissue; host or cells: calf spleen
Km [6]: 28 x 10⁻⁶ M
